# Data as given in patent publication US9227970B2, “Triazolopyridine compounds” (Hoffmann-La Roche Inc., priority 2011, dated 2016).
# pIC50: −log10 of the molar value.
# Target: human PDE10A (Homo sapiens (Human), UniProt Q9Y233)
# Assay: human PDE10A full length Scintillation Proximity Assay (SPA)
# Assay type: biochemical
# Conditions: 50 nM cGMP + 50 nM [3H]-cGMP, 20 minutes at room temperature, read-out: PDE10A inhibition IC50
# Protocol: The following test was carried out in order to determine the activity of the compounds of the present invention. […] The human PDE10A full length assay was performed in 96-well micro titer plates. […] A range of concentrations of the potential inhibitor was used to generate data for calculating the concentration of inhibitor resulting in 50% of the effect (e.g. […] Non-specific activity was tested without the enzyme. The reaction was initiated by the addition of the substrate solution (cGMP and [^3H]-cGMP) and allowed to progress for 20 minutes at room temperature. The reaction was terminated by adding 25 μl of YSi-SPA scintillation beads (GE Healthcare, cat. # RPNQ0150) in 18 mM zinc sulphate solution (stop reagent). […] Afterwards, radioactive counts were measured on a Perkin Elmer Top-Count Scintillation plate reader.
# Chain of human PDE10A (Q9Y233 other isoform, or with tags, fused parts or gaps): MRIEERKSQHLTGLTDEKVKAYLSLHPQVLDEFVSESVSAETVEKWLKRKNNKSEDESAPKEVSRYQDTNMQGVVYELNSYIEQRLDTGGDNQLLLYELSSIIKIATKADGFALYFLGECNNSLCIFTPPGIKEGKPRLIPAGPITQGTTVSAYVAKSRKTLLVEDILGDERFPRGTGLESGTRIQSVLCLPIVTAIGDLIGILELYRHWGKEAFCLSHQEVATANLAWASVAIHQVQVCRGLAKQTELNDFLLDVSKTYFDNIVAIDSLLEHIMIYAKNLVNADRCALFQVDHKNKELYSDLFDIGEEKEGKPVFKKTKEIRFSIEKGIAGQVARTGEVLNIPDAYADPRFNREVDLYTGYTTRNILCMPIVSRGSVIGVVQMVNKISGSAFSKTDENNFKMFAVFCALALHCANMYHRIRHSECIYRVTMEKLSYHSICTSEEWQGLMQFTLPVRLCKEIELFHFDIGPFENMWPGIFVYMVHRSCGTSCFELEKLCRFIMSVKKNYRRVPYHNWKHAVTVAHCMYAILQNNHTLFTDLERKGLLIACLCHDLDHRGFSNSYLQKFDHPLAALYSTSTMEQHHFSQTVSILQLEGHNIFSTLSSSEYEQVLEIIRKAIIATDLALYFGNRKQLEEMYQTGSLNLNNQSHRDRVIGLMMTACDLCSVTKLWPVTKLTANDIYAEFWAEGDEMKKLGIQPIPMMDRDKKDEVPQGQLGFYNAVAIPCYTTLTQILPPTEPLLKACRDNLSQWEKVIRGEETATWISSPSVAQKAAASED
row,SMILES,pIC50
1,"Cn1ncc(C(=O)N2CCC2)c1C(=O)Nc1ccc2nc(-c3cscn3)nn2c1 [Example 4, 4-(Azetidine-1-carbonyl)-1-methyl-N-(2-(thiazol-4-yl)-[1,2,4]triazolo[1,5-a]pyridin-6-yl)-1H-pyrazole-5-carboxamide]",8.10
2,"COC1CCN(c2nc3ccc(NC(=O)c4c(C(=O)N5CCOCC5)cnn4C)cn3n2)C1 (stereo not drawn) [Example 39, 2-Methyl-4-(morpholine-4-carbonyl)-2H-pyrazole-3-carboxylic acid [2-(3-methoxy-pyrrolidin-1-yl)-[1,2,4]triazolo[1,5-a]pyridin-6-yl]-amide]",7.64
3,CCN(C)C(=O)c1cnn(C)c1C(=O)Nc1ccc2nc(N3CCCC3)nn2c1 [Example 36],8.72
4,"CN(C)c1nc2ccc(NC(=O)c3c(C(=O)N4CC(F)C4)cnn3C)cn2n1 [Example 23, 4-(3-Fluoro-azetidine-1-carbonyl)-2-methyl-2H-pyrazole-3-carboxylic acid (2-dimethylamino-[1,2,4]triazolo[1,5-a]pyridin-6-yl)-amide]",7.60
5,"CCN(CC)C(=O)c1cnn(C)c1C(=O)Nc1ccc2nc(N(CC)CC)nn2c1 [Example 30, 2-Methyl-2H-pyrazole-3,4-dicarboxylic acid 4-diethylamide 3-[(2-diethylamino-1,2,4]triazolo[1,5-a]pyridin-6-yl)-amide]",7.72
6,"CN(C)c1nc2ccc(NC(=O)c3c(C(=O)N(C)C4CC4)cnn3C)cn2n1 [Example 24, 2-Methyl-2H-pyrazole-3,4-dicarboxylic acid 4-(cyclopropyl-methyl-amide) 3-[(2-dimethylamino-[1,2,4]triazolo[1,5-a]pyridin-6-yl)-amide]]",8.28
7,"CCN(C)C(=O)c1cnn(C)c1C(=O)Nc1ccc2nc(N3CCOCC3)nn2c1 [Example 16, 2-Methyl-2H-pyrazole-3,4-dicarboxylic acid 4-(ethyl-methyl-amide) 3-[(2-morpholin-4-yl-[1,2,4]triazolo[1,5-a]pyridin-6-yl)-amide]]",7.51
8,"Cn1ncc(C(=O)N2CCCC2)c1C(=O)Nc1ccc2nc(-c3cccnc3)nn2c1 [Example 12, 1-Methyl-N-(2-(pyridin-3-yl)-[1,2,4]triazolo[1,5-a]pyridin-6-yl)-4-(pyrrolidine-1-carbonyl)-1H-pyrazole-5-carboxamide]",7.75
9,"Cn1ncc(C(=O)N2CC(F)C2)c1C(=O)Nc1ccc2nc(-c3ccccc3)nn2c1 [Example 6, 4-(3-Fluoro-azetidine-1-carbonyl)-2-methyl-2H-pyrazole-3-carboxylic acid (2-phenyl-[1,2,4]triazolo[1,5-a]pyridin-6-yl)-amide]",8.82
10,"CN(C)c1nc2ccc(NC(=O)c3c(C(=O)N4CCCC4)cnn3C)cn2n1 [Example 21, 2-Methyl-4-(pyrrolidine-1-carbonyl)-2H-pyrazole-3-carboxylic acid (2-dimethylamino-[1,2,4]triazolo[1,5-a]pyridin-6-yl)-amide]",7.54
11,"Cn1ncc(C(=O)N2CCCC2)c1C(=O)Nc1ccc2nc(N3CCCC3)nn2c1 [Example 34, 2-Methyl-4-(pyrrolidine-1-carbonyl)-2H-pyrazole-3-carboxylic acid (2-pyrrolidin-1-yl-[1,2,4]triazolo[1,5-a]pyridin-6-yl)-amide]",8.92
12,CCN(CC)C(=O)c1cnn(C)c1C(=O)Nc1ccc2nc(N3CCCC3)nn2c1 [Example 37],8.46
13,"Cn1ncc(C(=O)N2CCOCC2)c1C(=O)Nc1ccc2nc(N3CCOCC3)nn2c1 [Example 14, 2-Methyl-4-(morpholine-4-carbonyl)-2H-pyrazole-3-carboxylic acid (2-morpholin-4-yl-[1,2,4]triazolo[1,5-a]pyridin-6-yl)-amide]",7.20
14,"CCN(CC)c1nc2ccc(NC(=O)c3c(C(=O)N4CCC4)cnn3C)cn2n1 [Example 28, 2-Methyl-4-(azetitine-4-carbonyl)-2H-pyrazole-3-carboxylic acid (2-diethylamino-[1,2,4]triazolo[1,5-a]pyridin-6-yl)-amide]",8.48
15,"Cn1ncc(C(=O)N2CC(F)C2)c1C(=O)Nc1ccc2nc(N3CCOCC3)nn2c1 [Example 17, 4-(3-Fluoro-azetidine-1-carbonyl)-2-methyl-2H-pyrazole-3-carboxylic acid (2-morpholin-4-yl-[1,2,4]triazolo[1,5-a]pyridin-6-yl)-amide]",7.58
16,"CCN(CC)c1nc2ccc(NC(=O)c3c(C(=O)N4CCOCC4)cnn3C)cn2n1 [Example 26, 2-Methyl-4-(morpholine-4-carbonyl)-2H-pyrazole-3-carboxylic acid (2-diethylamino-[1,2,4]triazolo[1,5-a]pyridin-6-yl)-amide]",7.66
17,CCN(CC)c1nc2ccc(NC(=O)c3c(C(=O)N(C)C4CC4)cnn3C)cn2n1 [Example 31],8.64
18,"CCN(C)C(=O)c1cnn(C)c1C(=O)Nc1ccc2nc(-c3ccccc3)nn2c1 [Example 7, 2-Methyl-2H-pyrazole-3,4-dicarboxylic acid 4-(ethyl-methyl-amide) 3-[(2-phenyl-[1,2,4]triazolo[1,5-a]pyridin-6-yl)-amide]]",8.66
19,CCN(CC)C(=O)c1cnn(C)c1C(=O)Nc1ccc2nc(N3CCC(OC)C3)nn2c1 (stereo not drawn) [Example 38],7.53
20,"CCN(C)C(=O)c1cnn(C)c1C(=O)Nc1ccc2nc(N(C)C)nn2c1 [Example 22, 2-Methyl-2H-pyrazole-3,4-dicarboxylic acid 3-[(2-dimethylamino-[1,2,4]triazolo[1,5-a]pyridin-6-yl)-amide] 4-(ethyl-methyl-amide)]",7.47

# Continued by rising pIC50, values first:
row,pIC50,SMILES
1,7.36,"Cn1ncc(C(=O)N2CCC2)c1C(=O)Nc1ccc2nc(-c3cccnc3)nn2c1 [Example 10, 4-(Azetidine-1-carbonyl)-1-methyl-N-(2-(pyridin-3-yl)-[1,2,4]triazolo[1,5-a]pyridin-6-yl)-1H-pyrazole-5-carboxamide]"
2,7.77,"CCN(C)C(=O)c1cnn(C)c1C(=O)Nc1ccc2nc(N3CCC(OC)C3)nn2c1 (stereo not drawn) [Example 40, 2-Methyl-2H-pyrazole-3,4-dicarboxylic acid 4-(ethyl-methyl-amide) 3-{[2-(3-methoxy-pyrrolidin-1-yl)-[1,2,4]triazolo[1,5-a]pyridin-6-yl]-amide}]"
3,7.77,"COc1ncc(C2CC2)nc1C(=O)Nc1ccc2nc(-c3ccccc3)nn2c1 [Example 25, 6-cyclopropyl-3-methoxy-N-(2-phenyl-[1,2,4]triazolo[1,5-a]pyridin-6-yl)pyrazine-2-carboxamide]"
4,8.00,"CCN(C)C(=O)c1cnn(C)c1C(=O)Nc1ccc2nc(N(CC)CC)nn2c1 [Example 29, 2-Methyl-2H-pyrazole-3,4-dicarboxylic acid 3-[(2-diethylamino-[1,2,4]triazolo[1,5-a]pyridin-6-yl)-amide] 4-(ethyl-methyl-amide)]"
5,8.12,"COC1CCN(c2nc3ccc(NC(=O)c4c(C(=O)N5CCCC5)cnn4C)cn3n2)C1 (stereo not drawn) [Example 42, 2-Methyl-4-(pyrrolidine-1-carbonyl)-2H-pyrazole-3-carboxylic acid [2-(3-methoxy-pyrrolidin-1-yl)-[1,2,4]triazolo[1,5-a]pyridin-6-yl]-amide]"
6,8.14,"CN(C(=O)c1cnn(C)c1C(=O)Nc1ccc2nc(N3CCOCC3)nn2c1)C1CC1 [Example 18, 2-Methyl-2H-pyrazole-3,4-dicarboxylic acid 4-(cyclopropyl-methyl-amide) 3-[(2-morpholin-4-yl-[1,2,4]triazolo[1,5-a]pyridin-6-yl)-amide]]"
7,8.31,"COC1CCN(c2nc3ccc(NC(=O)c4c(C(=O)N5CCC5)cnn4C)cn3n2)C1 (stereo not drawn) [Example 43, 4-(Azetidine-1-carbonyl)-2-methyl-2H-pyrazole-3-carboxylic acid [2-(3-methoxy-pyrrolidin-1-yl)-[1,2,4]triazolo[1,5-a]pyridin-6-yl]-amide]"
8,8.46,"COC1CCN(c2nc3ccc(NC(=O)c4c(C(=O)N(C)C5CC5)cnn4C)cn3n2)C1 (stereo not drawn) [Example 41, 2-Methyl-2H-pyrazole-3,4-dicarboxylic acid 4-(cyclopropyl-methyl-amide) 3-{[2-(3-methoxy-pyrrolidin-1-yl)-[1,2,4]triazolo[1,5-a]pyridin-6-yl]-amide}]"
9,8.60,"Cn1ncc(C(=O)N2CCOCC2)c1C(=O)Nc1ccc2nc(N3CCCC3)nn2c1 [Example 32, 2-Methyl-4-(morpholine-4-carbonyl)-2H-pyrazole-3-carboxylic acid (2-pyrrolidin-1-yl-[1,2,4]triazolo[1,5-a]pyridin-6-yl)-amide]"
10,8.92,"Cn1ncc(C(=O)N2CCCC2)c1C(=O)Nc1ccc2nc(-c3ccccc3)nn2c1 [Example 2, 2-Methyl-4-(pyrrolidine-1-carbonyl)-2H-pyrazole-3-carboxylic acid (2-phenyl-[1,2,4]triazolo[1,5-a]pyridin-6-yl)-amide]"
11,9.00,CN(C(=O)c1cnn(C)c1C(=O)Nc1ccc2nc(N3CCCC3)nn2c1)C1CC1 [Example 35]
12,9.05,"CN(C(=O)c1cnn(C)c1C(=O)Nc1ccc2nc(-c3ccccc3)nn2c1)C1CC1 [Example 8, 2-Methyl-2H-pyrazole-3,4-dicarboxylic acid 4-(cyclopropyl-methyl-amide) 3-[(2-phenyl-[1,2,4]triazolo[1,5-a]pyridin-6-yl)-amide]]"
13,9.10,Cn1ncc(C(=O)N2CCC2)c1C(=O)Nc1ccc2nc(N3CCCC3)nn2c1 [Example 33]

# Tested on: not given
# Assay: not given
# Conditions: not given
row,SMILES,melting point
1,"Cn1ncc(C(=O)N2CCCC2)c1C(=O)Nc1ccc2nc(-c3cccnc3)nn2c1 [Example 12, 1-Methyl-N-(2-(pyridin-3-yl)-[1,2,4]triazolo[1,5-a]pyridin-6-yl)-4-(pyrrolidine-1-carbonyl)-1H-pyrazole-5-carboxamide]",251 °C
2,"Cn1ncc(C(=O)N2CC(F)C2)c1C(=O)Nc1ccc2nc(-c3ccccc3)nn2c1 [Example 6, 4-(3-Fluoro-azetidine-1-carbonyl)-2-methyl-2H-pyrazole-3-carboxylic acid (2-phenyl-[1,2,4]triazolo[1,5-a]pyridin-6-yl)-amide]",243 °C

# Continued, values first:
row,melting point,SMILES
1,272 °C,"Cn1ncc(C(=O)N2CCC2)c1C(=O)Nc1ccc2nc(-c3cccnc3)nn2c1 [Example 10, 4-(Azetidine-1-carbonyl)-1-methyl-N-(2-(pyridin-3-yl)-[1,2,4]triazolo[1,5-a]pyridin-6-yl)-1H-pyrazole-5-carboxamide]"
2,172 °C,"CN(C(=O)c1cnn(C)c1C(=O)Nc1ccc2nc(N3CCOCC3)nn2c1)C1CC1 [Example 18, 2-Methyl-2H-pyrazole-3,4-dicarboxylic acid 4-(cyclopropyl-methyl-amide) 3-[(2-morpholin-4-yl-[1,2,4]triazolo[1,5-a]pyridin-6-yl)-amide]]"
3,210 °C,"Cn1ncc(C(=O)N2CCCC2)c1C(=O)Nc1ccc2nc(-c3ccccc3)nn2c1 [Example 2, 2-Methyl-4-(pyrrolidine-1-carbonyl)-2H-pyrazole-3-carboxylic acid (2-phenyl-[1,2,4]triazolo[1,5-a]pyridin-6-yl)-amide]"
4,106 °C,"CN(C(=O)c1cnn(C)c1C(=O)Nc1ccc2nc(-c3ccccc3)nn2c1)C1CC1 [Example 8, 2-Methyl-2H-pyrazole-3,4-dicarboxylic acid 4-(cyclopropyl-methyl-amide) 3-[(2-phenyl-[1,2,4]triazolo[1,5-a]pyridin-6-yl)-amide]]"
